Three molecules from patent publication US20080064723A1, “Anti-Hair Graying Agent” (SHISEIDO COMPANY, LTD., priority 2004, published 2008) can be followed below.

The subject of this assay is humans. Nature of the assay: Human anti-hair graying effect test. In kind it is in vivo. The note with it: 0.25% sample applied on scalps of 10 male subjects, two times per day, 2 ml per time, six months; after use vs before use. The procedure:
As the test substances, compounds 1, 2 and 3 were used. Each test substance was dissolved in a mixed solution of an aqueous 70% ethanol solution plus 1% 1,3-butylene glycol and the resultant mixture used as the sample (test substance concentration: 0.25%).
The number of gray hairs among approximately 1000 hairs was counted before and after use of each sample. The changes of the ratios were used to compare the anti-hair graying actions. Specifically, each sample was applied on the scalps of 10 male subjects two times per day, 2 ml per time, continuously for six months. One thousand hairs of each of the subjects were counted divided into black hairs and gray hairs before the application and right after the end of six months after termination of the application to investigate the hair graying rate. The ratios (%) of the subjects where the hair graying rates after use declined 20% or more compared with before use, changed within ±20% or increased by 20% or more were respectively calculated.
Take `CCOC(=O)C1CCNCC1` [Compound 3, 4-piperidine carboxylic acid ethyl ester]: the “Hair graying rate: Changing within ±20% (ratio of subjects)” value was 20%, the “Hair graying rate: Declining 20% or more (ratio of subjects)” value is 70% and the “Hair graying rate: Increasing 20% or more (ratio of subjects)” value was found to be 10%.

As to `NC1CCC(C(=O)O)CC1` (stereo not drawn) [Compound 1, 4-aminocyclohexane carboxylic acid], the “Hair graying rate: Changing within ±20% (ratio of subjects)” value worked out at 30%, the “Hair graying rate: Declining 20% or more (ratio of subjects)” value was 70% and the “Hair graying rate: Increasing 20% or more (ratio of subjects)” value is 0%.

For the molecule `O=C(O)C1CCNCC1` [Compound 2, 4-piperidine carboxylic acid], the “Hair graying rate: Changing within ±20% (ratio of subjects)” value stood at 30%, the “Hair graying rate: Declining 20% or more (ratio of subjects)” value came to 60% and the “Hair graying rate: Increasing 20% or more (ratio of subjects)” value was found to be 10%.
